Test results published in US20070021355A1, “Antidepressants or foods and beverage for antidepression” (priority 2003, published 2007).

Legend:
Format in all cases: in vivo
[1] = tested on: reserpine-administered mice; test: Action on reserpine-induced temperature drop (body temperature); details: for Body temperature: male ddY mice, reserpine 2 mg/kg s.c., 100 mg/kg i.p. once per day for two days, mean ± standard error
Procedure: (§1) Male ddY mice (4 weeks old) were subcutaneously administered reserpine (2 mg/kg) (Apoplon injection 1 mg, product of Daiichi Pharmaceutical Co., Ltd.). These mice were divided into two groups: one to which Compound 1 (100 mg/kg) was intraperitoneally administered once per day for two days (reserpine+Compound 1-administered group) and the other to which only a solvent was administered (reserpine+solvent-administered group). Reserpine and Compound 1 were administered after being dissolved in a physiological saline. The body temperature of the mice was measured 0.5, 1, 3 and 6 hours after the last administration. Separately, a solvent was administered to another group of mice without reserpine administration.

[2] = tested on: reserpine-administered mice; test: Action on reserpine-induced blepharoptosis; details: for Blepharoptosis score: score 1 completely opened to 5 completely closed, reserpine 2 mg/kg s.c., 100 mg/kg i.p. once per day for two days, mean ± standard error
Procedure: as §1, with “The level” for “The body temperature”, “of blepharoptosis” for “of the mice”, “was scored” for “was measured”, “last administration (score 1: completely opened, score 2: ¼ closed, score 3: ½ closed, score 4: ¾ closed, and score 5: completely closed).” for “last administration.”

[3] = tested on: reserpine-administered mice; test: Action on reserpine-induced drop in the quantity of spontaneous motion
Procedure: Male ddY mice (4 weeks old) were subcutaneously administered reserpine (2 mg/kg) (Apoplon injection 1 mg, product of Daiichi Pharmaceutical Co., Ltd.). These mice were divided into two groups: one to which Compound 1 (100 mg/kg) was intraperitoneally administered once per day for four days (reserpine+Compound 1-administered group) and the other to which only a solvent was administered (reserpine+solvent-administered group). Reserpine and Compound 1 were administered after being dissolved in a physiological saline. After the last administration, the mice were immediately put into breeding cages equipped with an infrared beam sensor (NS-AS01, Neuroscience, Inc.). After the last administration, the quantity of spontaneous motion in each 30-minute period was measured for 360 minutes with an infrared beam sensor device for measuring the quantity of spontaneous motion (AB system, Neuroscience, Inc.) and the measured values were summed up on a specific purpose computer via an interface (B060CT8H06, Neuroscience, Inc). Separately, another group of mice which was administered no reserpine was tested.

[4] = tested on: mice fed with a vitamin B deficient food; test: Action on depressive behavior induced by vitamin B deficient food (swimming patterns)
Procedure: Male ddY mice (3 weeks old) were fed with a feed deficient in vitamin B1, vitamin B12 and folic acid for 8 days and then divided into two groups: one to which Compound 1 (100 mg/kg) was intraperitoneally administered once per day for 11 days (vitamin deficient food+Compound 1-administered group) and the other to which only a solvent was administered (vitamin deficient food+solvent-administered group). Compound 1 was administered after being dissolved in a physiological saline. Two hours after the last administration, the mice were put in a plastic cylindrical tub (diameter: 18 cm, height: 40 cm, water depth: 15 cm, water temperature: ca. 23° C.), followed by measurement of the time of their struggle, swimming and immobility in 10 minutes. Separately, another group of mice fed with a normal food was tested.

[5] = tested on: 5-HT and 5-HIAA in the hypothalamus of mice; test: Action on the amount of amine in the brain (5-HT and 5-HIAA in the hypothalamus); details: 100 mg/kg i.p.
Procedure: Male ddY mice (4 weeks old) were intraperitoneally administered Compound 1 (100 mg/kg) (Compound 1-administered group) and their brains were excised 30 and 60 minutes after the administration to measure the amounts of serotonin (5-HT) and its metabolite 5-hydroxyindole-3-acetic acid (5-HIAA) in the hypothalamus. Compound 1 was administered after being dissolved in a physiological saline. Separately, another group of mice was administered only a solvent (solvent-administered group) and the amounts of 5-HT and 5-HIAA were measured in the same manner.

[6] = 30 minute after last administration
[7] = 60 minute after last administration
[8] = 180 minute after last administration
[9] = 360 minute after last administration
[10] = vitamin B deficient food, 100 mg/kg i.p. once per day for 11 days, two hours after last administration, time in 10 minutes, mean ± standard error
[11] = male ddY mice, brains excised 30 and 60 minutes after administration, mean ± standard error

Structure (SMILES): NC(Cc1c([C@@H]2O[C@@H](CO)[C@H](O)[C@@H](O)[C@H]2O)[nH]c2ccccc12)C(=O)O (stereo partly drawn) [Compound 1, 2-amino-3-[2-(α-L-mannopyranosyl]indol-3-yl]propionic acid]
- Effect on body temperature of reserpine-administered mice (in words) ([1]; 100 mg/kg i.p.): significantly raised the body temperature
- Body temperature [1, 6]: ***36.1 ± 0.2 °C
- Body temperature [1, 7]: ** 35.4 ± 0.1 °C
- Body temperature [1, 8]: ** 35.2 ± 0.3 °C
- Body temperature [1, 9]: ** 34.9 ± 0.4 °C
- Effect on reserpine-induced blepharoptosis (in words) ([2]; 100 mg/kg i.p.): showed the action to improve the condition
- Blepharoptosis score [2, 6]: ***3.0 ± 0.4
- Blepharoptosis score [2, 7]: ** 3.1 ± 0.3
- Blepharoptosis score [2, 8]: ** 3.3 ± 0.3
- Blepharoptosis score [2, 9]: ** 3.3 ± 0.2
- Effect on reserpine-induced drop in quantity of spontaneous motion (in words) ([3]; 100 mg/kg i.p.): showed the action to increase the quantity of spontaneous motion
- Quantity of spontaneous motion in 360 minutes ([3]; reserpine 2 mg/kg s.c., 100 mg/kg i.p. once per day for four days, infrared beam sensor, mean ± standard error): 2464.2 ± 594.6 count
- Effect on struggle, swimming and immobility time of mice on vitamin B deficient food (in words) ([4]; 100 mg/kg i.p.): improved these actions
- Swimming pattern: Immobility [4, 10]: ***35.6 ± 15.4 second
- Swimming pattern: Struggle [4, 10]: ***2.4 ± 2.4 second
- Swimming pattern: Swimming [4, 10]: ***562.0 ± 14.2 second
- Effect on contents of 5-HT and 5-HIAA in the hypothalamus (in words) [5]: increased the contents of 5-HT and 5-HIAA
- Content of 5-HIAA in the hypothalamus [5, 11]: 374.1 ± 26.7 ng/g wet weight
- Content of 5-HT in the hypothalamus [5, 11]: 815.0 ± 39.1 ng/g wet weight
